Assay results as given in PMC11062922 (Nature Chemical Biology, 2023).

Tests used:
[1] = biological target: T1, ACAD11 (Homo sapiens, UniProt Q709F0); test: Kinobeads two-dose competition binding: ACAD11; conditions: sheet CATDS matrix 2; Gene Name ACAD11
T1 construct: endogenous in cells
T1 sequence (Q709F0 1-780): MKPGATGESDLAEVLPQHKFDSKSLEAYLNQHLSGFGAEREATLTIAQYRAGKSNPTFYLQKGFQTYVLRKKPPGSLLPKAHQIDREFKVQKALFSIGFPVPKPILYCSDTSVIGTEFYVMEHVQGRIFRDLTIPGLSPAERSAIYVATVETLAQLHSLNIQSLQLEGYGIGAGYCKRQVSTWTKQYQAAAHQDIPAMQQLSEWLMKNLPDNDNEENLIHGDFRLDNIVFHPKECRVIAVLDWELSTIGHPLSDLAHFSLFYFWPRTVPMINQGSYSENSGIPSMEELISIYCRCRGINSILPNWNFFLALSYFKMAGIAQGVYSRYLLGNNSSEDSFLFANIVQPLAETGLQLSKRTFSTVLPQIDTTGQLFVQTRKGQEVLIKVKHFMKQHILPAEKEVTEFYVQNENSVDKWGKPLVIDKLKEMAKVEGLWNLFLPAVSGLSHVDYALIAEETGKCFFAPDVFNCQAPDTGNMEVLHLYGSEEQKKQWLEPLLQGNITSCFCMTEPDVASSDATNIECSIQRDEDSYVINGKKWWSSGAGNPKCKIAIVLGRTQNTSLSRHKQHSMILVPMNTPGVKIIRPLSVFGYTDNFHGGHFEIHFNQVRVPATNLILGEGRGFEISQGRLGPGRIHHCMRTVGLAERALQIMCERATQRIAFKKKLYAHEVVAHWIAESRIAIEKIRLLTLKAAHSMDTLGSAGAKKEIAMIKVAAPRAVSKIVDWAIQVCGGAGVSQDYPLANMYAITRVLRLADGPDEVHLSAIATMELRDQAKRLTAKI

[2] = biological target: ABL1 (Homo sapiens, UniProt P00519); test: Kinobeads two-dose competition binding: ABL1; conditions: sheet CATDS matrix 2; Gene Name ABL1
Chain of ABL1 (P00519 28-1130 limits assumed): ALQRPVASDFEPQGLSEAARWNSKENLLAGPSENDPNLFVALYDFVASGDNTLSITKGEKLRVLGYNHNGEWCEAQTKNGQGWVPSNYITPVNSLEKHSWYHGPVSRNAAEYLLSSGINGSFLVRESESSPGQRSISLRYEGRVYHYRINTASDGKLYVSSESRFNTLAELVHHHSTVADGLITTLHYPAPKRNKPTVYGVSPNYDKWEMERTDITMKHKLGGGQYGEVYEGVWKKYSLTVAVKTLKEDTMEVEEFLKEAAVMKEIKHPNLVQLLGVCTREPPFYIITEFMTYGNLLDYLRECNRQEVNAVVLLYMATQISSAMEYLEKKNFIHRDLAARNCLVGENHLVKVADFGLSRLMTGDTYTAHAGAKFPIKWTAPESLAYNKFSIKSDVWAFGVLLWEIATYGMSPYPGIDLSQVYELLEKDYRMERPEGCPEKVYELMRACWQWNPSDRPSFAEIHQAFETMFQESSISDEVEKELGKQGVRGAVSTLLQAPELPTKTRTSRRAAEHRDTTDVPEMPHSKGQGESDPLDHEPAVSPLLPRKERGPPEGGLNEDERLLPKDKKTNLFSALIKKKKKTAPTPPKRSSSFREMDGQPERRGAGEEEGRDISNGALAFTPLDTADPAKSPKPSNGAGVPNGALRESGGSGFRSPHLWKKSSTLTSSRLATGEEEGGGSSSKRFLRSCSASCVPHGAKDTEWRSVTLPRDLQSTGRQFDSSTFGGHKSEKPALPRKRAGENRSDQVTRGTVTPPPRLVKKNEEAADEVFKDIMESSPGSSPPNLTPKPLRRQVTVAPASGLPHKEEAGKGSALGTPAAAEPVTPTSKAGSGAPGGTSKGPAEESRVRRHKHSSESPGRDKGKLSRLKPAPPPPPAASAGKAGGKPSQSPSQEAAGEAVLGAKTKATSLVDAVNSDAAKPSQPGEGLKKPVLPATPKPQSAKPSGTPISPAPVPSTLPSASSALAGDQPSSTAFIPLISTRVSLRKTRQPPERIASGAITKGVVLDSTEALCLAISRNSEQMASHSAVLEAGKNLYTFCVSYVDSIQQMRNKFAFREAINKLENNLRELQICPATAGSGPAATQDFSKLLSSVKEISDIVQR

[3] = biological target: T2, ABL2 (Homo sapiens, UniProt P42684); test: Kinobeads two-dose competition binding: ABL2; conditions: sheet CATDS matrix 2; Gene Name ABL2
T2 construct: endogenous in cells
T2 sequence (P42684 whole entry): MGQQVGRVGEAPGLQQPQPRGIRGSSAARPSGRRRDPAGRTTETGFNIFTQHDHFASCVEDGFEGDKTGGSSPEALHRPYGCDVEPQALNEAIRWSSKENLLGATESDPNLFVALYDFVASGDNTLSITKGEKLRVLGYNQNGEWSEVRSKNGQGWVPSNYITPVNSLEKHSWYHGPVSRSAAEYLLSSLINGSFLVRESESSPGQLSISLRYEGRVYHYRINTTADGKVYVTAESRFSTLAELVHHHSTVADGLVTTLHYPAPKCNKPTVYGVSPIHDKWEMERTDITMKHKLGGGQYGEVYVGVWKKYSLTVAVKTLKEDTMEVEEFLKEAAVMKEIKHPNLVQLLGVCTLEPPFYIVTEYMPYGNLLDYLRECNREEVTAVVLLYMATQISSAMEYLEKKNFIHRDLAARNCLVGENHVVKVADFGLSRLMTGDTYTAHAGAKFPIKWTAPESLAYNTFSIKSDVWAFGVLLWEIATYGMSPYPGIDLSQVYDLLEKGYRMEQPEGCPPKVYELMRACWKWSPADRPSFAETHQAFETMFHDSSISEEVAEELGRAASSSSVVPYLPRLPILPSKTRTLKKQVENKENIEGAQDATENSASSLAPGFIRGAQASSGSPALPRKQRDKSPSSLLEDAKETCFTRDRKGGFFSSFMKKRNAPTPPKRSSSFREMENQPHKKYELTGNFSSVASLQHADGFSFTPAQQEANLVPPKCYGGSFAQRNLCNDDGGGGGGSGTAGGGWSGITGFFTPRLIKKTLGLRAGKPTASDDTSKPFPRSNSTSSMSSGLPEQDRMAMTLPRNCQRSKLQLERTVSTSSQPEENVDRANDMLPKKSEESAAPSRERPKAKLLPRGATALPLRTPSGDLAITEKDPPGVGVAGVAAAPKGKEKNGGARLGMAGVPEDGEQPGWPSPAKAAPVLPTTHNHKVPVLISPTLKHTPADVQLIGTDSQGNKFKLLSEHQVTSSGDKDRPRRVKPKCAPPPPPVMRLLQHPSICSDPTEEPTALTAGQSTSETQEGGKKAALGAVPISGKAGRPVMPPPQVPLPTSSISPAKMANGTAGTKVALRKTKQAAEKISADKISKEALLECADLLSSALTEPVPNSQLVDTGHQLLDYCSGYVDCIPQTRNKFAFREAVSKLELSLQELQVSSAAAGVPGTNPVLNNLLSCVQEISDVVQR

[4] = biological target: T3, AAK1 (Homo sapiens, UniProt Q2M2I8); test: Kinobeads two-dose competition binding: AAK1; conditions: for CATDS: sheet CATDS matrix 2, Gene Name AAK1; for potency estimated from few doses: sheet "Kinobeads Drugmatrix - all", unit inferred, same values below 1000 recur in sheet "nanomolar", read-out: Kinobeads Drugmatrix - all: apparent Kd, AAK1;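 on all read-outs here: kinobeads competition pulldown from cell lysate, compound preincubated 45 min at 4 °C, bead-bound protein measured by label-free mass spectrometry against DMSO vehicle control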
T3 construct: to maximize the representation of endogenous proteins; endogenous in cells
T3 sequence (Q2M2I8 whole entry): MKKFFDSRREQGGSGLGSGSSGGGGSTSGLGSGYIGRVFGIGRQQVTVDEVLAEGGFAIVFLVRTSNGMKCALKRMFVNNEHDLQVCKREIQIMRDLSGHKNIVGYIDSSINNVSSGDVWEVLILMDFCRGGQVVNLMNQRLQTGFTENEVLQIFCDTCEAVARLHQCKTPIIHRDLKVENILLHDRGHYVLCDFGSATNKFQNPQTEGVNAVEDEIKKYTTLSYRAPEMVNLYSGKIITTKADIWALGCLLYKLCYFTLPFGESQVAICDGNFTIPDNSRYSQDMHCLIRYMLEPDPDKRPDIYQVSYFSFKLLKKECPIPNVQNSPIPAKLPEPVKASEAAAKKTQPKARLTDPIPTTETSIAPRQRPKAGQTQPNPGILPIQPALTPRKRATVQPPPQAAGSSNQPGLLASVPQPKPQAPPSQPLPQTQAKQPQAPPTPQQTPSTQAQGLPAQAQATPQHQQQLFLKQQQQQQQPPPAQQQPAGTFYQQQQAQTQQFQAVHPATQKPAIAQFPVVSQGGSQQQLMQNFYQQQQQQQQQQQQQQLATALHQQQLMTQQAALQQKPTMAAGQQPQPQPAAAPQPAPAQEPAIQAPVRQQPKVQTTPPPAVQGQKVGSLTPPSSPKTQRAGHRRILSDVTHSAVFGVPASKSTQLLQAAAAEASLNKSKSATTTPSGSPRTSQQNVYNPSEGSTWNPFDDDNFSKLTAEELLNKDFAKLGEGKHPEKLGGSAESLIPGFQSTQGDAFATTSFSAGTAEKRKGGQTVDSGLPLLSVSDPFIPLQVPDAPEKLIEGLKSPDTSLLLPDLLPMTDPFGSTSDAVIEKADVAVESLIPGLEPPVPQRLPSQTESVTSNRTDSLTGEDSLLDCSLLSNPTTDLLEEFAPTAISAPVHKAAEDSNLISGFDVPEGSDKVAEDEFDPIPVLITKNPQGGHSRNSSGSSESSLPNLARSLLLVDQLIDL

[5] = biological target: T4, ACOX1 (Homo sapiens, UniProt Q15067); test: Kinobeads two-dose competition binding: ACOX1; conditions: sheet CATDS matrix 2; Gene Name ACOX1;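 further: competition of compounds with immobilized broad-spectrum kinase inhibitor beads in cell lysate at 100 and 1,000 nM, 45 min at 4 °C, bead-bound protein quantified by label-free MS versus DMSO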
T4 construct: endogenous in cells
T4 sequence (Q15067 1-660): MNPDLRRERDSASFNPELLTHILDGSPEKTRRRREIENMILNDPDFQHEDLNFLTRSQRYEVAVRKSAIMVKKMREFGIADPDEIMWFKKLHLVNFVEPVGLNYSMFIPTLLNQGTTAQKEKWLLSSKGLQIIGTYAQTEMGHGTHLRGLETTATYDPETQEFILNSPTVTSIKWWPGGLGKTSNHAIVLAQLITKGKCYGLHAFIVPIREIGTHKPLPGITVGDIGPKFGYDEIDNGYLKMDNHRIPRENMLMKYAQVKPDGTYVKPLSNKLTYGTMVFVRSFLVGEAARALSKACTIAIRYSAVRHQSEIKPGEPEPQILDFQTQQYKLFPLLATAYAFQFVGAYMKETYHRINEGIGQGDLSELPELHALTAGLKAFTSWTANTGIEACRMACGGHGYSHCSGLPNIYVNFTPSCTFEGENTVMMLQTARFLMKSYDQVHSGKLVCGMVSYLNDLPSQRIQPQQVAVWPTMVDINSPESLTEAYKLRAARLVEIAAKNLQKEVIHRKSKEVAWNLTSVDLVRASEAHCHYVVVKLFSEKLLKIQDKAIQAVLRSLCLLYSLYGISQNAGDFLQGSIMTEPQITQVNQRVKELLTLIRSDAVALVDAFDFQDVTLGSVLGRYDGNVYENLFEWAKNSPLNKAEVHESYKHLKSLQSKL

O=c1cc(N2CCOCC2)nc2n(Cc3cccc(Cl)c3Cl)c3ccccc3n12 [GSK2299009A]
0: CATDS [1] | CATDS [2] | CATDS [3] | CATDS [4] | CATDS [5]

COc1cc(Nc2nccc(N3CCC(NC(=O)Nc4cccc(C(C)=O)c4)C3)n2)cc(OC)c1OC (stereo not drawn) [GSK1379753A]
0: CATDS [1] | CATDS [2] | CATDS [3] | CATDS [4] | CATDS [5]

COc1ccc(Nc2nccc(N3CCC(NC(=O)C(C)c4ccc(Cl)cc4)C3)n2)cc1 (stereo not drawn) [GSK1379735A]
0: CATDS [1] | CATDS [2] | CATDS [3] | CATDS [4] | CATDS [5]

NC(=O)c1sc(-n2cnc3ccccc32)cc1OCc1ccccc1F [GSK1024306A]
0: CATDS [1] | CATDS [2] | CATDS [3] | CATDS [4] | CATDS [5]

CCCNC(=O)c1ccc(Nc2ncc(C(F)(F)F)c(Nc3ccccc3C(C)=O)n2)c(Br)c1 [BI00801818]
0: CATDS [1] | CATDS [2] | CATDS [3] | CATDS [4] | CATDS [5]

O=S(=O)(c1cccc2cnccc12)N1CCCNCC1 [Fasudil, reference compound]
0: CATDS [1] | CATDS [2] | CATDS [3] | CATDS [4] | CATDS [5]

COc1ccc2ncnc(Nc3ccc(OCc4ccccc4)cc3)c2c1 [GI261520A]
0: CATDS [1] | CATDS [2] | CATDS [3] | CATDS [4] | CATDS [5]

N#Cc1ccc(CCNc2nccc(-c3cccc(CN4CCNCC4)c3)n2)cc1 [GSK2137462A]
0: CATDS [1] | CATDS [2] | CATDS [3] | CATDS [4] | CATDS [5]

COc1cc(Nc2ccnc3ccc(Br)cc23)cc(OC)c1OC [CA93.0]
0: CATDS [1] | CATDS [2] | CATDS [3] | CATDS [4] | CATDS [5]

Cc1ccc(NC(=O)c2cccc(C#N)c2)cc1-c1ccc(C(=O)Nc2ccncc2)cc1 [GSK1398463A]
0: CATDS [1] | CATDS [2] | CATDS [3] | CATDS [4] | CATDS [5]

Cc1c(Cn2ccn3c(=O)cc(N4CCOCC4)nc23)cccc1C(F)(F)F [GSK2289044B]
0: CATDS [1] | CATDS [2] | CATDS [3] | CATDS [4] | CATDS [5]

NCCCC(NC(=O)c1cc(Br)c(-c2ccnc3[nH]ccc23)s1)c1ccccc1 (stereo not drawn) [GSK1287544A]
0: CATDS [1] | CATDS [2] | CATDS [3] | CATDS [4] | CATDS [5]

c1ccc(Cc2nc3ccc(Nc4ncnc5ccccc45)cc3[nH]2)cc1 [GR269666A_KCGS]
0: CATDS [1] | CATDS [2] | CATDS [3] | CATDS [4] | CATDS [5]

CNS(=O)(=O)c1ccc(N(C)C)c(Nc2ncnc3cc(OC)c(OC)cc23)c1 [GSK114]
0: CATDS [1] | CATDS [2] | CATDS [3] | CATDS [4] | CATDS [5]

COc1cc2ncn(-c3cc(OCCc4ccccc4)c(C(N)=O)s3)c2cc1OC [GSK204925A]
0: CATDS [1] | CATDS [2] | CATDS [3] | CATDS [4] | CATDS [5]

COc1cc(Nc2ncc(F)c(Nc3ccc4c(n3)N(COP(=O)(O)O)C(=O)C(C)(C)O4)n2)cc(OC)c1OC [Fostamatinib, reference compound]
0: CATDS [1] | CATDS [2] | CATDS [3] | CATDS [4] | CATDS [5]

CC(C)N1CCN(Cc2cnc(-c3cc(-c4cccc5[nH]ccc45)cc4[nH]ncc34)o2)CC1 [GSK2269557]
0: CATDS [1] | CATDS [2] | CATDS [3] | CATDS [4] | CATDS [5]

CNC(=O)c1ncccc1Nc1nc(Nc2cc3c(cc2OC)CCCN3C(=O)CN(C)C)nc2[nH]ccc12 [GSK2220400A]
0: CATDS [1] | CATDS [2] | CATDS [3] | CATDS [4] | CATDS [5]

CNc1cc(-c2ccc3c(N)n[nH]c3c2)nc(N)n1 [GSK2224810A]
0.04187: CATDS [4]
0: CATDS [1] | CATDS [2] | CATDS [3] | CATDS [5]

Cc1nn2c(=O)cc(N3CCOCC3)nc2n1Cc1cccc(Cl)c1Cl [GSK2342769A]
0: CATDS [1] | CATDS [2] | CATDS [3] | CATDS [4] | CATDS [5]

CCn1c(-c2nonc2N)nc2c(C#CC(C)(C)O)nc(O[C@@H](CN)c3ccccc3)cc21 [GSK1007102B]
67.3 nM: potency estimated from few doses [4]
0.04112: CATDS [4]
0: CATDS [1] | CATDS [2] | CATDS [3] | CATDS [5]

COc1cc2c(cc1Nc1nc(N3CCc4ccccc43)c3cc[nH]c3n1)N(C(=O)CN(C)C)CC2 [GSK2186269A]
0: CATDS [1] | CATDS [2] | CATDS [3] | CATDS [4] | CATDS [5]

COc1ccc(Nc2nccc(NCCNC(=O)Nc3cc(C)ccc3C)n2)cc1 [GSK1379899A]
0: CATDS [1] | CATDS [2] | CATDS [3] | CATDS [4] | CATDS [5]
> 1000 nM: potency estimated from few doses [4]

COc1ncc(-c2cc(-c3ncc(CN4C[C@@H](C)O[C@@H](C)C4)o3)c3cn[nH]c3c2)cc1NS(C)(=O)=O [GSK2292767]
0: CATDS [1] | CATDS [2] | CATDS [3] | CATDS [4] | CATDS [5]

CNc1nccc(-c2ccc3c(N)n[nH]c3c2)n1 [GSK2206003A]
108 nM: potency estimated from few doses [4]
0: CATDS [1] | CATDS [2] | CATDS [3] | CATDS [5]
0.118: CATDS [4]

CSc1nn2c(=O)cc(N3CCOCC3)nc2n1Cc1cccc(C(F)(F)F)c1C [GSK2363608B]
0: CATDS [1] | CATDS [2] | CATDS [3] | CATDS [4] | CATDS [5]

CNC(=O)c1c(F)cccc1Nc1nc(Nc2cc3c(cc2OC)CCN3C(=O)CN(C)C)nc2[nH]ccc12 [GSK1838705]
0: CATDS [1] | CATDS [2] | CATDS [3] | CATDS [4] | CATDS [5]

COc1cc(Nc2nccc(N3CCC(NC(=O)c4cccc(NC(C)=O)c4)C3)n2)cc(OC)c1OC (stereo not drawn) [GSK1379754A]
0.1752: CATDS [4]
0: CATDS [1] | CATDS [2] | CATDS [3] | CATDS [5]
410 nM: potency estimated from few doses [4]

COc1ccc(Nc2nccc(N3CCC(NC(=O)c4cccc(NC(C)=O)c4)C3)n2)cc1 (stereo not drawn) [GSK1379732A]
0: CATDS [1] | CATDS [2] | CATDS [3] | CATDS [4] | CATDS [5]

NC(=O)c1sc(-n2cnc3ccccc32)cc1OCc1ccccc1Br [GSK1023156A]
0: CATDS [1] | CATDS [2] | CATDS [3] | CATDS [4] | CATDS [5]

Cc1cc(Nc2ncc(Cl)c(Nc3ccccc3S(=O)(=O)C(C)C)n2)c(OC(C)C)cc1C1CCNCC1 [Ceritinib, reference compound]
0: CATDS [1] | CATDS [2] | CATDS [3] | CATDS [4] | CATDS [5]
